Assays:
[1] = Regeneration of the parent drug by rat plasma hydrolysis of the prodrug; assay type: in vitro ADME; conditions: 37° C., initial prodrug concentration 6.3×10^-5 M, n=2, HPLC
Experimental: The rate of hydrolysis of the acetoxyisopropyl carbamate prodrug of [3(R)-2-(piperidine-4-yl)ethyl]-2-piperidone-1-[(3R)-methyl-5-ketopentanoic acid]by plasma enzymes was studied by measuring the formation of the parent amine drug at 37° C. in rat plasma. The reaction was initiated by adding an aqueous solution of the carbamate prodrug to the reaction medium pre-equilibrated at 37° C. in a thermostated water bath. The initial concentration of the prodrug in rat plasma was 6.3×10^-5 M. Samples (100 μl) were withdrawn at intervals and mixed with saturated ammonium sulfate (200 μl), vortex mixed for 10 seconds and centrifuged for 5 minutes at 14,000 g to precipitate plasma proteins. The supernatant was injected directly and analyzed by HPLC on a 20 cm Brownlee Spheri-5 RP-18 column combined with a similar 3 cm guard column. The mobile phase used for the analysis was 0.01M K2 HPO4 buffer (adjusted to pH 6.5 with phosphoric acid) containing 3% acetonitrile at a flow rate of 1 mL/min. The retention time under these conditions for the amine drug was approximately 15 minutes. The concentration of the compounds was measured at 210 nm using a variable wavelength. UV detector.

[2] = oral administration to rats; cited from earlier work

`CC(=O)OC(C)(C)OC(=O)N1CCC(CC[C@@H]2CCCN(CC(=O)N[C@H](C)CC(=O)O)C2=O)CC1` [acetoxyisopropyl carbamate prodrug, {3(R)-2-{1-[2(Acetoxy)isopropoxycarbonylpiperidine-4yl]-ethyl}piperidone-1}-acetyl-3(R)-methyl-β-alanine] showed a half-life at 63 µM [1] of 32 ± 6 min.
For `CCn1cc(C(=O)O)c(=O)c2cc(F)c(N3CCN(Cc4oc(=O)oc4C)CC3)cc21` [alkylated nofloxacin], the “regeneration of the parent drug” value [2] is listed as “regenerated the parent drag”.

— patent publication US5684018A, “Acyloxyisopropyl carbamates as prodrugs for amine drugs” (Merck & Co., Inc., priority 1994, dated 1997)
